According to patent publication US9945862B2, “Biomarkers for predicting and assessing responsiveness of thyroid and kidney cancer subjects to lenvatinib compounds” (Eisai R&D Management Co., Ltd., priority 2011, dated 2018):

System: thyroglobulin
Assay: Serum thyroglobulin, chemiluminescent immunometric assay (IMMULITE 2000), pre- and post-treatment with E7080
Format: in vivo, human
Method: The serum for the thyroglobulin assays was collected within 72 hours prior to Day 1 of all cycles. 24 mg of E7080 was administered orally, daily continuously in 28-day cycles. Serum samples from 58 patients were used for thyroglobulin measurements. 6 mL of blood was drawn into red top tubes and let to clot at room temperature for at least 30 min. Within 60 minutes of sample collection, the tubes were centrifuged for 15 minutes at 20-25° C. at 1000×g. The supernatant was drawn without disturbing the pellet, put into sample tubes with serum filter and shipped frozen to the central lab for testing on the day of collection. The level of thyroglobulin was detected by a solid-phase, chemiluminescent immunometric assay (IMMULITE 2000 Thyroglobulin Assay System, Siemens) following standard operating procedure. In brief, serum thyroglobulin was captured by beads coated with anti-thyroglobulin antibody and detected using anti-thyroglobulin antibody linked to alkaline phosphatase. The level of serum thyroglobulin was calculated from a standard curve generated with lyophilized thyroglobulin. Serum thyroglobulin was stable for up to 2 months when stored frozen for the assay. The sensitivity of this assay was 0.2 ng/ml. From 58 patient samples, 50 pre- and post-treatment blood samples at maximum were used for these analyses. Dramatic changes in thyroglobulin levels were observed 29 days after the start of treatment with E7080.

COc1cc2nccc(Oc3ccc(NC(=O)NC4CC4)c(Cl)c3)c2cc1C(N)=O [E7080, 4-(3-chloro-4-(cyclopropylaminocarbonyl)aminophenoxy)-7-methoxy-6-quinolinecarboxamide]
Thyroglobulin level ratio (median), Other group (SD or PD) (CYCLE2 DAY 1/CYCLE1 DAY 1): 0.288 | Thyroglobulin level ratio (median), PR group (CYCLE2 DAY 1/CYCLE1 DAY 1): 0.195 | Thyroglobulin level ratio (median), Other group (SD or PD) (CYCLE3 DAY 1/CYCLE1 DAY 1): 0.221 | Thyroglobulin level ratio (median), PR group (CYCLE3 DAY 1/CYCLE1 DAY 1): 0.109 | Thyroglobulin level ratio (median), Other group (SD or PD) (CYCLE4 DAY 1/CYCLE1 DAY 1): 0.227 | Thyroglobulin level ratio (median), PR group (CYCLE4 DAY 1/CYCLE1 DAY 1): 0.079 | Thyroglobulin level ratio (median), Other group (SD or PD) (CYCLE5 DAY 1/CYCLE1 DAY 1): 0.332 | Thyroglobulin level ratio (median), PR group (CYCLE5 DAY 1/CYCLE1 DAY 1): 0.106 | Thyroglobulin level ratio (median), Other group (SD or PD) (CYCLE6 DAY 1/CYCLE1 DAY 1): 0.198 | Thyroglobulin level ratio (median), PR group (CYCLE6 DAY 1/CYCLE1 DAY 1): 0.078
